2 compounds from PMC6435698, “Keggin-type polyoxotungstates as mushroom tyrosinase inhibitors - A speciation study” (Scientific Reports, 2019) can be followed below.

Where two headings read alike, the source gives them in different places.

In this test the target is T1, abPPO4 (mushroom tyrosinase) (Agaricus bisporus, UniProt C7FF05).
T1 construct: glutathione-S-transferase (GST) (N, cleaved yes); made in house; host or cells: E. coli BL21(DE3)
T1 sequence (C7FF05 1-379 limits assumed): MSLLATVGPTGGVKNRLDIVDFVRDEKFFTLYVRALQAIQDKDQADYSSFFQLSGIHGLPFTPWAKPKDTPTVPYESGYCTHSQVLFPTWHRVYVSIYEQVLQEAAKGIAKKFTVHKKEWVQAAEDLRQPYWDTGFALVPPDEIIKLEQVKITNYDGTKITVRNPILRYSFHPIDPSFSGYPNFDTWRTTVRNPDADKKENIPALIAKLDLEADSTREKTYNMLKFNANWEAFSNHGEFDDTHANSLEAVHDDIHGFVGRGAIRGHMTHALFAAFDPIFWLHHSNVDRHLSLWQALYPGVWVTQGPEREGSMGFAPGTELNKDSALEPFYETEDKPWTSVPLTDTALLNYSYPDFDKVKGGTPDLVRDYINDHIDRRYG
As to the kind of experiment: dopachrome assay, inhibition of abPPO4 diphenolase activity. As to Ki [mM], from Dixon plots: L-DOPA 0.4–1.5 mM. As to Ki [mM], from Lineweaver-Burk slopes: L-DOPA 0.4–1.5 mM. Conditions: for α, inhibition parameter, from Lineweaver-Burk intercepts: [b] from Lineweaver-Burk intercepts; for Inhibition type: substrate L-DOPA. It counts as biochemical. As for the experimental part:
The detailed methodology applied for kinetic evaluation is presented in the SI.
For the activity plots shown here, the ratios of reaction rates v ([I] = 0] and vapp ([I] = 0.2–14 mM) were determined from UV absorption measurements at 475 nm using the dopachrome assay. Each reaction setup contained a fixed amount of enzyme (1 µg abPPO4) in 1 mL in a plastic cuvette and the reaction buffer was 50 mM Na-citrate pH 6.8. POT stock solutions were prepared in 20 mM concentration in reaction buffer and adjusted for pH 6.8 with NaOH, if necessary. The reaction rates were extracted from the obtained absorption curves as the slope of linear fits of the steepest curve sections close to the start of the reaction over a time-range of 30 s and were determined in triplicates. The relative enzymatic activity dependent on the inhibitor concentration was fitted to a suitable hyperbolic expression (see SI for details). […] The dopachrome assay was performed exactly as described in section 3.1.1. This time, the observed reaction velocities vapp (in µmol/min) were calculated from the extracted reaction rates (in 1/s) using the extinction coefficient of dopachrome ε = 3700 M^−1 cm^−1 [62]. The so obtained data was plotted according to Lineweaver-Burk, and the slopes and ordinate intercepts of these graphs were used to extract inhibition parameters.
(The kinetic models with according mathematical expressions applied in this study are based on Copeland’s guide for enzyme kinetics[28].)
The classical Michaelis-Menten equation[28] relates the velocity v of an enzymatic reaction to the applied substrate concentration [S]:
In this equation, the Michaelis constant KM represents the substrate concentration effecting the half-maximum reaction rate vmax.
For the reported inhibition studies, we chose an expanded version of this equation (1) which accounts for all possible inhibition mechanisms and combinations thereof[28]. In general, both […]
ݒ௠௔௫,௔௣௣ = ௩೘ೌೣଵା [಺] (2)
Herein, [I] refers to the inhibitor concentration, Ki is the inhibition constant measuring the […]
The three ideal inhibition types are reflected by three limiting conditions for α:
(A) 0 < α <<1: uncompetitive inhibition
(B) α = 1: non-competitive inhibition
(C) α >> 1: competitive inhibition
Therefore, values of α < 1 often correspond to mixed-type inhibition with contributions from uncompetitive and non-competitive inhibition modes.
Insertion of expressions (2) and (3) in equation (1) leads to the final mixed-type inhibition […]
The relative enzymatic activity upon inhibition can be expressed as the ratio of the observed reaction velocity v app to the non - inhibited reaction performance v through dividing equation […]
This corresponds to a normalization of the reaction rates with respect to the non - inhibited rate. As w e were interested in the dependence of the reaction velocity on the inhibitor concentration , the substrate concentration was fixed to 1 mM L - DOPA for all activity plots.
This led to a further simplification of equation ( 1 ) : […]
Equation (6) was used as the final curve fit expression for kinetic evaluation of those POM […]
K M was set to 26.1 mM as reported for ab PPO4 by
3.2 Determination of inhibition type
3.2. 1 Kinetic evaluation using Lineweaver - Burk plots […]
linear Lineweaver - Burk [ 29 ] extrapolations. The double - reciprocal plots of 1/ v app against 1/[S] yielded straight li nes that were fitted accordingly to the corresponding ly rearranged form of […]
For simplicity, the terms for the slope m and the ordinate shift t are co mbine d in constants in […]

Setting [1] is: [a] from activity plot, 1 mM L-DOPA, 50 mM Na-citrate pH 6.8, 0–14 mM POT, read-out: Ki [mM], from activity plot.
Setting [2] is: [a] from activity plot, 1 mM L-DOPA, pH 6.8.
Setting [3] is: [b] from Lineweaver-Burk slopes, L-DOPA 0.4–[…], pH 6.8, read-out: Ki [mM], from Lineweaver-Burk slopes.
Where [4] appears, read: [c] from Dixon plots, average intersection, L-DOPA 0.4–[…], pH 6.8, read-out: Ki [mM], from Dixon plots.

In general, Ki refers to a dissociation constant, usually derived from enzyme kinetics or from competition with a known ligand. For the compound `[Na+].[Na+].[O]=[W](=[O])([O-])[O-]` [[WO4]^2−, Na2WO4, reference compound], the Ki by setting is: under setting [1], 20 mM; under setting [3], 19 mM; under setting [4], 24.8 mM. Also, the “α, inhibition parameter, from activity plot” value under setting [2] is on record as 0.14. For the same compound, under “pH 6.8”, the “α, inhibition parameter, from Lineweaver-Burk intercepts” value is on record as 0.03. Besides, the Inhibition type entry (pH 6.8) is reported as “Mixed-type”.
As for K4[SiW12O40] [[SiW12]^4−], the inhibitory constant (Ki) is, setting by setting: under setting [1], 4.7 mM; under setting [3], 3.8 mM; under setting [4], 5.6 mM. For the same compound, the “α, inhibition parameter, from activity plot” value under setting [2] was 0.11. Moreover, for the setting “pH 6.8”, the “α, inhibition parameter, from Lineweaver-Burk intercepts” value is on record as 0.32. Also, the “inhibitory effect on abPPO4 activity (in words)” value (activity plots, 1 mM L-DOPA, pH 6.8) is on record as “most potent inhibitory effect”. The Inhibition type entry (pH 6.8) is on record as “Mixed-type”.
